Data published in US12624354B2, “Methods and compositions for prime editing nucleotide sequences” (The Broad Institute, Inc., priority 2019, dated 2026).

Tests used:
[1] = tested on: 5′-Cy5-labeled dsDNA substrates; assay: In vitro TPRT (prime editing) primer extension assay, denaturing urea PAGE; type: biochemical; details: non-nicked substrate, standard gRNA (gRNA_0, lane 3)
Description: All reactions are with M-MLV RT.
Then, the fluorescently labeled DNA substrate was added along with dNTPs and the RT enzyme. After 1 hour of incubation at 37° C., the reaction products were analyzed by denaturing urea-polyacrylamide gel electrophoresis (PAGE).
However, the DNA substrates are not pre-nicked in this set of experiments. […] The reaction products were analyzed by denaturing urea-polyacrylamide gel electrophoresis (PAGE).
Reactions were incubated at 37° C. for 1 hour, then analyzed by denaturing urea PAGE and visualized for Cy5 fluorescence.
Reactions were allowed to proceed at 37° C. for 1 hour prior to separation by denaturing urea PAGE and visualization by Cy5 fluorescence.

[2] = tested on: different target sites in various cell lines; assay: Efficiency of prime editors with truncated RT; type: cell-based
Text: FIG. 75 provides a bar graph comparing the efficiency (i.e., “% of total sequencing reads with the specified edit or indels”) of PE2, PE2-trunc, PE3, and PE3-trunc over different target sites in various cell lines.
See FIG. 75, which provides a bar graph comparing the efficiency (i.e., “% of total sequencing reads with the specified edit or indels”) of PE2, PE2-trunc, PE3, and PE3-trunc over different target sites in various cell lines.

HEK cells = assay: Npu intein-split prime editors, plasmid transfection, high-throughput sequencing; type: cell-based; details: HEK cells transfected with plasmids
Text: This Example is focused on a PE fusion protein comprising the canonical SpCas9 (SEQ ID NO: 18). The split sites for other Cas9 proteins may be the corresponding same site, or may need to be optimized for each different Cas9 protein. In the instant Example, the prime editor was split between residues 1023 and 1024 of SpCas9 (SEQ ID NO: 18). This is referred to as the “1023/1024” split site.
Prime editors (PEs) exceed the AAV packaging capacity.
It was therefore determined whether mutation from the Cas9-native “SEQ” towards the Npu intein “CFN” sequence altered efficiency of prime editing.
Although associated, unspliced editors may be active, perturbations of the sterics of the prime editor resulting from incomplete splicing during initiation steps may affect editing outcomes.

“Cas9 nickase: Cas9 nickase (SpyCas9 H840A mutant)” was tested, and the “cleavage of the DNA strand” value [1] was “efficiently cleaves the DNA strand”.

With “PE2-trunc: Cas9 (H840A) fused to a truncated M-MLV reverse transcriptase with D200N, T306K, W313F, T330P; SEQ ID NO: 765” the “efficiency (% of total sequencing reads with the specified edit or indels)” value [2] was “about as efficient as the prime editors comprising the non-truncated RT proteins”.

B1: 1024-CFN: intein-split PE with Cas9 residues at 1024 mutated to the Npu intein CFN sequence (protein)
chain: MKRTADGSEFESPKKKRKVIKIATRKYLGKQNVYDIGVERDHNFALKNGFIASNCFNEIGKATAKYFFYSNIMNFFKTEITLANGEIRKRPLIETNGETGEIVWDKGRDFATVRKVLSMPQVNIVKKTEVQTGGFSKESILPKRNSDKLIARKKDWDPKKYGGFDSPTVAYSVLVVAKVEKGKSKKLKSVKELLGITIMERSSFEKNPIDFLEAKGYKEVKKDLIIKLPKYSLFELENGRKRMLASAGELQKGNELALPSKYVNFLYLASHYEKLKGSPEDNEQKQLFVEQHKHYLDEIIEQISEFSKRVILADANLDKVLSAYNKHRDKPIREQAENIIHLFTLTNLGAPAAFKYFDTTIDRKRYTSTKEVLDATLIHQSITGLYETRIDLSQLGGDSGGSSGGSSGSETPGTSESATPESSGGSSGGSSTLNIEDEYRLHETSKEPDVSLGSTWLSDFPQAWAETGGMGLAVRQAPLIIPLKATSTPVSIKQYPMSQEARLGIKPHIQRLLDQGILVPCQSPWNTPLLPVKKPGTNDYRPVQDLREVNKRVEDIHPTVPNPYNLLSGLPPSHQWYTVLDLKDAFFCLRLHPTSQPLFAFEWRDPEMGISGQLTWTRLPQGFKNSPTLFNEALHRDLADFRIQHPDLILLQYVDDLLLAATSELDCQQGTRALLQTLGNLGYRASAKKAQICQKQVKYLGYLLKEGQRWLTEARKETVMGQPTPKTPRQLREFLGKAGFCRLFIPGFAEMAAPLYPLTKPGTLFNWGPDQQKAYQEIKQALLTAPALGLPDLTKPFELFVDEKQGYAKGVLTQKLGPWRRPVAYLSKKLDPVAAGWPPCLRMVAAIAVLTKDAGKLTMGQPLVILAPHAVEALVKQPPDRWLSNARMTHYQALLLDTDRVQFGPVVALNPATLLPLPEEGLQHNCLDILAEAHGTRPDLTDQPLPDADHTWYTDGSSLLQEGQRKAGAAVTTETEVIWAKALPAGTSAQRAELIALTQALKMAEGKKLNVYTDSRYAFATAHIHGEIYRRRGWLTSEGKEIKNKDEILALLKALFLPKRLSIIHCPGHQKGHSAEARGNRMADQAARKAAITETPDTSTLLIENSSPSGGSKRTADGSEFEPKKKRK
In the case of B1, the “prime editing activity compared with full-length PE3” value (HEK cells) is reported as “recapitulates full-length PE3 activity”.
